Here are results for 23 molecules from PubChem BioAssay AID330 (DTP/NCI, 2004).

The assay has as its system P388 leukemia ip, CD2F1 mice, survival T/C. Put plainly: NCI In Vivo Anticancer Drug Screen. Data for tumor model P388 Leukemia (intraperitoneal) in CD2F1 (CDF1) mice. As to conditions: endpoint: median survival time, higher = longer survival. The method, boiled down:
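Mice carrying the transplanted tumor received test compound or vehicle. Survival was recorded in each group, and the value is the treated-group measurement divided by that of the vehicle-treated control group.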

Setting [1] is: dose: 50.0 mg/kg/injection, schedule: Q01DX009 (ip), vehicle: saline with Tween-80.
[2] abbreviates: dose: 100.0 mg/kg/injection, schedule: Q01DX009 (ip), vehicle: saline with Tween-80.
[3] abbreviates: dose: 200.0 mg/kg/injection, schedule: Q01DX009 (ip), vehicle: saline with Tween-80.
Where [4] appears, read: dose: 100.0 mg/kg/injection, schedule: Q01DX001 (ip), vehicle: saline with Tween-80.
The mark [5] stands for this setting: dose: 200.0 mg/kg/injection, schedule: Q01DX001 (ip), vehicle: saline with Tween-80.
Setting [6] is: dose: 400.0 mg/kg/injection, schedule: Q01DX001 (ip), vehicle: saline with Tween-80.
Setting [7] is: dose: 50.0 mg/kg/injection, schedule: Q01DX005 (ip), vehicle: saline with Tween-80.
Where [8] appears, read: dose: 100.0 mg/kg/injection, schedule: Q01DX005 (ip), vehicle: saline with Tween-80.
The mark [9] stands for this setting: dose: 200.0 mg/kg/injection, schedule: Q01DX005 (ip), vehicle: saline with Tween-80.
Where [10] appears, read: dose: 60.0 mg/kg/injection, schedule: Q01DX005 (ip), vehicle: Klucel (hydroxypropylcellulose) (HPC).
Setting [11] is: dose: 120.0 mg/kg/injection, schedule: Q01DX005 (ip), vehicle: Klucel (hydroxypropylcellulose) (HPC).

The structures appear in SMILES notation. “And” between values parts separate entries of the source, which are not always exact repeats. Equal values may be shown once. Inconclusive results and toxic doses are left out.

Regarding `Nc1cc2c(cc1Br)-c1ccccc1C2=O`, the T/C under setting [1] is 96 % of control, the T/C under setting [2] is 97 % of control and the T/C under setting [3] was 90 % of control.
On to `COc1cc(C(CC(C)=O)c2cc3c(cc2OC(C)=O)OCO3)cc(OC)c1OC(C)=O` (centres undefined), for which the T/C is, setting by setting: (dose: 60.0 mg/kg/injection, schedule: Q01DX005 (ip), vehicle: saline with Tween-80) 105 % of control; (dose: 120.0 mg/kg/injection, schedule: Q01DX005 (ip), vehicle: saline with Tween-80) 89 % of control.
Consider `Brc1cnc2nc(-c3cccc4ccccc34)[nH]c2c1`, for which the T/C under setting [4] is 96 % of control, the T/C under setting [5] was 94 % of control and the T/C under setting [6] is 91 % of control.
For the molecule `CC1(C)N=C(N)N=C(N)N1c1cccc(CCCCOc2ccccc2)c1`, the T/C (dose: 3.13 mg/kg/injection, schedule: Q01DX009 (ip), vehicle: saline with Tween-80) was 150 % of control; the T/C (dose: 6.25 mg/kg/injection, schedule: Q01DX009 (ip), vehicle: saline with Tween-80) was 150 % of control; the T/C (dose: 6.25 mg/kg/injection, schedule: Q04DX003 (ip), vehicle: saline with Tween-80) was 113 % of control; the T/C (dose: 12.5 mg/kg/injection, schedule: Q01DX009 (ip), vehicle: saline with Tween-80) is 154 % of control; the T/C (dose: 12.5 mg/kg/injection, schedule: Q04DX003 (ip), vehicle: saline with Tween-80) is 109 % of control; the T/C (dose: 18.0 mg/kg/injection, schedule: Q01DX009 (ip), vehicle: saline with Tween-80) is 95 % of control.
`Cc1cc(NCCCN(C)C)c2ccc3cc(NCCCN(C)C)c(C)nc3c2n1`: the T/C is 96 % of control (dose: 25.0 mg/kg/injection, schedule: Q01DX009 (ip), vehicle: saline with Tween-80); 104 % of control under setting [1]; 102 % of control under setting [2].
Take `COc1ccc2c(c1)c(C(=O)O)cc(=O)n2C`: the T/C under setting [2] is 95 % of control; the T/C under setting [3] is 90 % of control; the T/C (dose: 400.0 mg/kg/injection, schedule: Q01DX009 (ip), vehicle: saline with Tween-80) is 90 % of control.
On to `O=C1OC(c2ccccc2)(c2ccc(Cl)cc2)CC1/C=C(\c1ccccc1)c1ccc(Cl)cc1` (centres undefined), for which the T/C is, setting by setting: under setting [7], 96 % of control; under setting [8], 90 % of control; under setting [9], 91 % of control.
For the molecule `CC(=O)OC1C(C)OC(OC2C(OC(=O)C3CCC4C(C3)OC3(CC(OC(=O)/C=C/c5ccccc5)C(C)CO3)C43CO3)OC(C)C(OC(C)=O)C2OC(C)=O)C(OC(C)=O)C1OC(C)=O` (centres undefined), the T/C is, setting by setting: (dose: 3.0 mg/kg/injection, schedule: Q01DX005 (ip), vehicle: saline) 100 % of control; (dose: 3.75 mg/kg/injection, schedule: Q01DX009 (ip), vehicle: saline + alcohol) 100 % of control; (dose: 6.0 mg/kg/injection, schedule: Q01DX005 (ip), vehicle: saline) 106 % of control; (dose: 7.5 mg/kg/injection, schedule: Q01DX009 (ip), vehicle: saline + alcohol) 98 % of control; (dose: 12.0 mg/kg/injection, schedule: Q01DX005 (ip), vehicle: saline) 99 % of control; (dose: 15.0 mg/kg/injection, schedule: Q01DX009 (ip), vehicle: saline + alcohol) 102 % of control. Besides, the T/C is, setting by setting: (dose: 24.0 mg/kg/injection, schedule: Q01DX005 (ip), vehicle: saline) 106 % of control; (dose: 30.0 mg/kg/injection, schedule: Q01DX009 (ip), vehicle: saline + alcohol) 104 % of control.
As to `Cn1c(=O)c2[nH]c(-n3ccc(=N)cc3)nc2n(C)c1=O`, the T/C is, setting by setting: (dose: 100.0 mg/kg/injection, schedule: Q04DX003 (ip), vehicle: saline) 103 % of control; (dose: 200.0 mg/kg/injection, schedule: Q04DX003 (ip), vehicle: saline) 99 % of control; (dose: 400.0 mg/kg/injection, schedule: Q04DX003 (ip), vehicle: saline) 99 % of control.
As for `CSC(=S)n1nc(-c2ccccc2)c(N=Nc2cccc(Cl)c2Cl)c1-c1ccccc1`, the T/C was 87 % of control under setting [4], 87 % of control under setting [5] and 97 % of control under setting [6].
Turning to `CC1COS(=O)(=O)C1` (centres undefined), the T/C reads like this: (dose: 25.0 mg/kg/injection, schedule: Q01DX009 (ip), vehicle: saline) 102 % of control; (dose: 50.0 mg/kg/injection, schedule: Q01DX009 (ip), vehicle: saline) 101 % of control.
For the molecule `COc1ccc2c(c1O)C13CC=NC(C2)C1C(C)(C)C(C)(C)C(=O)C3` (centres undefined), the T/C reads like this: (dose: 12.5 mg/kg/injection, schedule: Q01DX005 (ip), vehicle: saline with Tween-80) 100 % of control; (dose: 25.0 mg/kg/injection, schedule: Q01DX005 (ip), vehicle: saline with Tween-80) 101 % of control; under setting [7], 100 % of control and 97 % of control.
Regarding `O=C1/C(=C/c2ccc3c(c2)OCO3)C2CCC(N2)/C1=C\c1ccc2c(c1)OCO2`, the T/C reads like this: (dose: 50.0 mg/kg/injection, schedule: Q01DX001 (ip), vehicle: Klucel (hydroxypropylcellulose) (HPC)) 103 % of control; (dose: 100.0 mg/kg/injection, schedule: Q01DX001 (ip), vehicle: Klucel (hydroxypropylcellulose) (HPC)) 96 % of control; (dose: 200.0 mg/kg/injection, schedule: Q01DX001 (ip), vehicle: Klucel (hydroxypropylcellulose) (HPC)) 96 % of control.
As to `Cc1ccc(C2(c3ccc(C)cc3)CCCCCC2=O)cc1`, the T/C (dose: 25.0 mg/kg/injection, schedule: Q01DX005 (ip), vehicle: Klucel (hydroxypropylcellulose) (HPC)) is 87 % of control; the T/C (dose: 50.0 mg/kg/injection, schedule: Q01DX005 (ip), vehicle: Klucel (hydroxypropylcellulose) (HPC)) is 90 % of control; the T/C (dose: 100.0 mg/kg/injection, schedule: Q01DX005 (ip), vehicle: Klucel (hydroxypropylcellulose) (HPC)) is 97 % of control.
Consider `COc1ccc(C2C3C(=O)OCCOC(=O)C3C2c2ccc(OC)c(OC)c2)cc1OC` (centres undefined), for which the T/C runs as follows: under setting [7], 99 % of control; under setting [8], 104 % of control; under setting [9], 99 % of control.
Consider `CCCCCCC(=O)/C=C/c1cccc(OCc2ccc(Cl)cc2)c1`, for which the T/C under setting [1] was 101 % of control, the T/C under setting [2] is 93 % of control and the T/C under setting [3] is 101 % of control.
Take `CCOc1cc2c(cc1C(C)c1ccc(O)c(OC)c1)OCO2` (centres undefined): the T/C by setting is: (dose: 50.0 mg/kg/injection, schedule: Q01DX005 (ip), vehicle: distilled water + Tween-80) 99 % of control; (dose: 100.0 mg/kg/injection, schedule: Q01DX005 (ip), vehicle: distilled water + Tween-80) 101 % of control; (dose: 200.0 mg/kg/injection, schedule: Q01DX005 (ip), vehicle: distilled water + Tween-80) 104 % of control.
Turning to `Cn1c(=O)oc2cc(C(=O)CN3CCN(c4cccc(C(F)(F)F)c4)CC3)ccc21`, the T/C was 92 % of control under setting [10] and 93 % of control under setting [11].
Consider `NC(=O)C(F)C(N)C(=O)O` (centres undefined), for which the T/C is, setting by setting: (dose: 12.5 mg/kg/injection, schedule: Q01DX009 (ip), vehicle: suspension in saline) 100 % of control; (dose: 25.0 mg/kg/injection, schedule: Q01DX009 (ip), vehicle: suspension in saline) 103 % of control; (dose: 50.0 mg/kg/injection, schedule: Q01DX009 (ip), vehicle: suspension in saline) 97 % of control.
On to `C=CCC(CCC)(C(=O)Nc1ccc2nc(C)cc(N)c2c1)C(=O)Nc1ccc2nc(C)cc(N)c2c1`, for which the T/C runs as follows: under setting [7], 100 % of control; under setting [8], 93 % of control.
Take `CC(=O)NC(Cn1cc(C(N)=O)ccc1=N)C(=O)O` (centres undefined): the T/C was 102 % of control (dose: 1.56 mg/kg/injection, schedule: Q01DX005 (ip), vehicle: Klucel (hydroxypropylcellulose) (HPC)); 108 % of control and 114 % of control (dose: 3.12 mg/kg/injection, schedule: Q01DX005 (ip), vehicle: Klucel (hydroxypropylcellulose) (HPC)); 115 % of control and 122 % of control (dose: 6.25 mg/kg/injection, schedule: Q01DX005 (ip), vehicle: Klucel (hydroxypropylcellulose) (HPC)); 121 % of control (dose: 12.5 mg/kg/injection, schedule: Q01DX005 (ip), vehicle: Klucel (hydroxypropylcellulose) (HPC)).
Turning to `CC(C)(C)N1C(=O)[N+](C)(CCCCCC[N+]2(C)N=C([O-])N(C(C)(C)C)C2=O)N=C1[O-]` (centres undefined), the T/C (dose: 100.0 mg/kg/injection, schedule: Q04DX003 (ip), vehicle: saline with Tween-80) is 95 % of control; the T/C (dose: 200.0 mg/kg/injection, schedule: Q04DX003 (ip), vehicle: saline with Tween-80) is 100 % of control; the T/C (dose: 400.0 mg/kg/injection, schedule: Q04DX003 (ip), vehicle: saline with Tween-80) was 108 % of control.
In the case of `CC1=C(C)C2(C)S(=O)Nc3ccccc3C12C` (centres undefined), the T/C by setting is: under setting [10], 99 % of control; under setting [11], 99 % of control; (dose: 240.0 mg/kg/injection, schedule: Q01DX005 (ip), vehicle: Klucel (hydroxypropylcellulose) (HPC)) 87 % of control.
